Square brackets hold non-standard residues; d marks the D form. Peptide text beside a SMILES is read from it. hArg = N=C(N)NCCCC[C@H](N)C(=O)O; dNle = CCCC[C@@H](N)C(=O)O; Nle = CCCC[C@H](N)C(=O)O; Nva = CCC[C@H](N)C(=O)O
Test system: secretion of ACTH stimulated by oCRF in cultured rat pituitary cells
Assay: Blocking of oCRF-stimulated ACTH and β-endorphin secretion by cultured rat pituitary cells
Assay type: cell-based
Details: for inhibition of the secretion of ACTH and β-END-LI: result in words; for potency compared to AHC(9-41) in blocking by 50% the secretion of ACTH: ACTH secretion stimulated by a 1 nM dose of oCRF, AHC(9-41) = reference
Method: The effectiveness of synthetic CRF antagonists to block the secretion of ACTH and β-endorphin by cultured rat pituitary cells is measured using the procedure as generally set forth in Vale et al., Endocrinology, 91, 562 (1972).

Row | Compound | inhibition of the secretion of ACTH and β-END-LI | potency compared to AHC(9-41) in blocking by 50% the secretion of ACTH
1 | [4ClD-Phe^12, Nle^18,21,38 ]-AHC(9-41) [XX] | inhibits the secretion of ACTH and β-END-LI | –
2 | CCCC[C@H](NC(=O)[C@H](CC(C)C)NC(=O)[C@H](CCCCN)NC(=O)[C@H](CCCNC(=N)N)NC(=O)[C@H](CC(N)=O)NC(=O)[C@H](CO)NC(=O)[C@H](Cc1c[nH]cn1)NC(=O)[C@H](C)NC(=O)[C@H](CCC(N)=O)NC(=O)[C@H](CCC(N)=O)NC(=O)[C@H](C)NC(=O)[C@H](CC(C)C)NC(=O)[C@H](CCC(N)=O)NC(=O)[C@H](CCC(=O)O)NC(=O)[C@H](C)NC(=O)[C@H](CCCNC(=N)N)NC(=O)[C@H](C)NC(=O)[C@H](CCSC)NC(=O)[C@H](CCC(=O)O)NC(=O)CNC(=O)[C@@H](NC(=O)[C@H](CCC(=O)O)NC(=O)[C@H](CCCNC(=N)N)NC(=O)[C@H](CC(C)C)NC(=O)[C@H](CC(C)C)NC(=O)[C@H](Cc1c[nH]cn1)NC(=O)[C@H](Cc1ccccc1)NC(=O)[C@@H](NC(=O)[C@H](CC(C)C)NC(=O)[C@H](CC(=O)O)NC(C)=O)[C@@H](C)O)C(C)C)C(=O)N[C@@H](CC(=O)O)C(=O)N[C@@H](CCC)C(=O)N[C@H](C(N)=O)[C@@H](C)CC [XIII, [Acetyl-Asp^9, Gly^19, Nle^38, Asp^39, Nva^40]-hCRF(9-41)] (Ac-DLTFHLLREVGEMARAEQLAQQAHSNRKL[Nle]D[Nva]I-NH2) | inhibits the secretion of ACTH and β-END-LI | –
3 | CCCC[C@H](NC(=O)[C@H](CC(C)C)NC(=O)[C@H](CC(C)C)NC(=O)[C@H](CCCNC(=N)N)NC(=O)[C@H](CC(N)=O)NC(=O)[C@H](CC(N)=O)NC(=O)[C@H](C)NC(=O)[C@H](C)NC(=O)[C@H](CCC(N)=O)NC(=O)[C@H](CCC(N)=O)NC(=O)[C@H](CCCCN)NC(=O)[C@H](CCC(=O)O)NC(=O)[C@H](CCCCN)NC(=O)[C@H](CCC(=O)O)NC(=O)[C@H](CCC(N)=O)NC(=O)[C@H](CCCCNC(=N)N)NC(=O)[C@H](CCC(=O)O)NC(=O)[C@H](C)NC(=O)[C@H](CCC(=O)O)NC(=O)[C@@H](NC(=O)[C@H](CCSC)NC(=O)[C@H](CCCCN)NC(=O)[C@H](CCCNC(=N)N)NC(=O)[C@H](CC(C)C)NC(=O)[C@H](CC(C)C)NC(=O)[C@H](CCC(=O)O)NC(=O)[C@@H](N)CC(C)C)[C@@H](C)CC)C(=O)N[C@@H](CC(=O)O)C(=O)N[C@@H](Cc1ccccc1)C(=O)N[C@H](C(N)=O)[C@@H](C)CC [XVII, [Ala^20, Har^22, Nle^37, Phe^39]-sauvagine (11-40)] (H-LELLRKMIEAE[hArg]QEKEKQQAANNRLL[Nle]DFI-NH2) | inhibits the secretion of ACTH and β-END-LI | –
4 | CCCC[C@@H](N)C(=O)N[C@@H](Cc1c[nH]cn1)C(=O)N[C@@H](CC(C)C)C(=O)N[C@@H](CC(C)C)C(=O)N[C@@H](CCCNC(=N)N)C(=O)N[C@@H](CCC(=O)O)C(=O)N[C@@H](CCCC)C(=O)N[C@@H](CC(N)=O)C(=O)N[C@@H](CCC(=O)O)C(=O)N[C@@H](CCCC)C(=O)N[C@@H](CC(=O)O)C(=O)N[C@@H](CCCCN)C(=O)N[C@@H](C)C(=O)N[C@@H](CCC(=O)O)C(=O)N[C@@H](CCC(N)=O)C(=O)N[C@@H](Cc1ccccc1)C(=O)N[C@@H](C)C(=O)N[C@@H](CCC(=O)O)C(=O)N[C@@H](CCC(N)=O)C(=O)N[C@@H](C)C(=O)N[C@@H](C)C(=O)N[C@@H](CC(C)C)C(=O)N[C@@H](CC(N)=O)C(=O)N[C@@H](CCCNC(=N)N)C(=O)N[C@@H](CC(C)C)C(=O)N[C@@H](CC(C)C)C(=O)N[C@@H](CCCC)C(=O)N[C@@H](CCC(=O)O)C(=O)N[C@@H](CCC(=O)O)C(=O)N[C@@H](C)C(N)=O [XXVII, [D-Nle^12, Nle^18,21,38, Asn^19, Asp^22, Phe^27]-AHC(12-41)] (H-[dNle]HLLRE[Nle]NE[Nle]DKAEQFAEQAALNRLL[Nle]EEA-NH2) | inhibits the secretion of ACTH and β-END-LI | –
5 | CCCC[C@H](NC(=O)[C@H](CCC(=O)O)NC(=O)[C@@H](NC(=O)[C@H](CCCC)NC(=O)[C@H](CC(N)=O)NC(=O)[C@H](CCCNC(=N)N)NC(=O)[C@H](CC(C)C)NC(=O)[C@H](CC(C)C)NC(=O)[C@H](Cc1c[nH]cn1)NC(=O)[C@@H](N)Cc1ccccc1)[C@@H](C)CC)C(=O)N[C@@H](C)C(=O)N[C@@H](CCCNC(=N)N)C(=O)N[C@@H](CC(N)=O)C(=O)N[C@@H](CCC(=O)O)C(=O)N[C@@H](CC(N)=O)C(=O)N[C@@H](CCC(N)=O)C(=O)N[C@@H](CCCNC(=N)N)C(=O)N[C@@H](CCC(=O)O)C(=O)N[C@@H](CCC(N)=O)C(=O)N[C@@H](C)C(=O)NCC(=O)N[C@@H](CC(C)C)C(=O)N[C@@H](CC(N)=O)C(=O)N[C@@H](CCCNC(=N)N)C(=O)N[C@@H](CCCCN)C(=O)N[C@@H](Cc1ccc(O)cc1)C(=O)N[C@@H](CCCC)C(=O)N[C@@H](CC(=O)O)C(=O)N[C@@H](CCC(=O)O)C(=O)N[C@H](C(N)=O)C(C)C [VIII, [Nle^18,21,38]-Carp Urotensin I(12-41)] (H-FHLLRN[Nle]IE[Nle]ARNENQREQAGLNRKY[Nle]DEV-NH2) | inhibits the secretion of ACTH and β-END-LI | –
6 | CCCC[C@H](NC(=O)[C@H](CCC(=O)O)NC(=O)[C@H](CC(C)C)NC(=O)[C@H](CCSC)NC(=O)[C@H](CCC(=O)O)NC(=O)[C@H](CCCNC(=N)N)NC(=O)[C@H](CC(C)C)NC(=O)[C@H](CC(C)C)NC(=O)[C@H](Cc1c[nH]cn1)NC(=O)[C@H](N)Cc1ccccc1)C(=O)N[C@@H](C)C(=O)N[C@@H](CCCCN)C(=O)N[C@@H](C)C(=O)N[C@@H](CCC(=O)O)C(=O)N[C@@H](CCC(N)=O)C(=O)N[C@@H](CCSC)C(=O)N[C@@H](C)C(=O)N[C@@H](CCC(=O)O)C(=O)N[C@@H](CCC(N)=O)C(=O)N[C@@H](C)C(=O)N[C@@H](C)C(=O)N[C@@H](CC(C)C)C(=O)N[C@@H](CC(N)=O)C(=O)N[C@@H](CCCNC(=N)N)C(=O)N[C@@H](CC(C)C)C(=O)N[C@@H](CC(C)C)C(=O)N[C@@H](CCCC)C(=O)N[C@@H](CCC(=O)O)C(=O)N[C@@H](CCC(=O)O)C(=O)N[C@@H](C)C(N)=O [XXI, [D-Phe^12, Met^27, Nle^21,38]-AHC (12-41)] (H-[dF]HLLREMLE[Nle]AKAEQMAEQAALNRLL[Nle]EEA-NH2) | inhibits the secretion of ACTH and β-END-LI | –
7 | [Nle^21,38, Arg^37 ]-hCRF(12-41) [IX] | inhibits the secretion of ACTH and β-END-LI | more than 6 times as potent as AHC(9-41)
8 | CCCC[C@H](NC(=O)[C@H](CC(C)C)NC(=O)[C@H](CC(C)C)NC(=O)[C@H](CCCNC(=N)N)NC(=O)[C@H](CC(N)=O)NC(=O)[C@H](CC(N)=O)NC(=O)[C@H](C)NC(=O)[C@H](C)NC(=O)[C@H](CCC(N)=O)NC(=O)[C@H](CCC(N)=O)NC(=O)[C@H](CCCCN)NC(=O)[C@@H](NC(=O)[C@H](CCCCN)NC(=O)[C@H](CCC(=O)O)NC(=O)[C@H](CCC(N)=O)NC(=O)[C@H](CCCCN)NC(=O)[C@H](CCC(=O)O)NC(=O)[C@@H](NC(=O)[C@H](CCC(=O)O)NC(=O)[C@@H](NC(=O)[C@H](CCSC)NC(=O)[C@H](CCCCN)NC(=O)[C@H](CCCNC(=N)N)NC(=O)[C@H](CC(C)C)NC(=O)[C@H](CC(C)C)NC(=O)[C@H](CCC(=O)O)NC(=O)[C@@H](N)CC(C)C)C(C)C)C(C)C)[C@@H](C)CC)C(=O)N[C@@H](CC(=O)O)C(=O)N[C@H](C(=O)NCC(N)=O)[C@@H](C)O [XVIII, [Val^18,20, Ile^26, Nle^37, Gly^40]-sauvagine(11-40)] (H-LELLRKMVEVEKQEKIKQQAANNRLL[Nle]DTG-NH2) | inhibits the secretion of ACTH and β-END-LI | –
9 | [CML^14,19,27,36, Nle^38 ]-AHC(12-41) [XXVI] | inhibits the secretion of ACTH and β-END-LI | –
10 | [D-Val^12, Nle^21,38, Ile^24,27, Nva^41 ]-hCRF(11-41) [XXVIII] | inhibits the secretion of ACTH and β-END-LI | –
11 | CCCC[C@H](NC(=O)[C@H](CCCCN)NC(=O)[C@H](C)NC(=O)[C@H](CCSC)NC(=O)[C@H](CCC(=O)O)NC(=O)[C@H](C)NC(=O)[C@@H](NC(=O)[C@H](CCC(=O)O)NC(=O)[C@H](CCCNC(=N)N)NC(=O)[C@H](CC(C)C)NC(=O)[C@H](CC(C)C)NC(=O)[C@H](Cc1c[nH]cn1)NC(=O)[C@H](N)Cc1ccc(O)cc1)C(C)C)C(=O)N[C@@H](CCC(=O)O)C(=O)N[C@@H](CCC(N)=O)C(=O)N[C@@H](CCC)C(=O)N[C@@H](C)C(=O)N[C@@H](CCC(N)=O)C(=O)N[C@@H](CCC(N)=O)C(=O)N[C@@H](C)C(=O)N[C@@H](Cc1c[nH]cn1)C(=O)N[C@@H](CO)C(=O)N[C@@H](CC(N)=O)C(=O)N[C@@H](CCCNC(=N)N)C(=O)N[C@@H](CCCCN)C(=O)N[C@@H](CC(C)C)C(=O)N[C@@H](CCCC)C(=O)N[C@@H](CCC(=O)O)C(=O)N[C@@H](CCCC)C(=O)N[C@H](C(N)=O)[C@@H](C)CC [XXX, [D-Tyr^12, Ala^19, Lys^23, Nle^24,38,40 Nva^27,]-hCRF(12-41)] (H-[dY]HLLREVAEMAK[Nle]EQ[Nva]AQQAHSNRKL[Nle]E[Nle]I-NH2) | inhibits the secretion of ACTH and β-END-LI | –
12 | [D-2Nal^12, Nle^21,38 ]-hCRF(12-41) [X] | inhibits the secretion of ACTH and β-END-LI | about 9 times as potent as AHC(9-41)
13 | CCCC[C@H](NC(=O)[C@H](CC(C)C)NC(=O)[C@H](CC(C)C)NC(=O)[C@H](CCCNC(=N)N)NC(=O)[C@H](CC(N)=O)NC(=O)[C@H](CC(N)=O)NC(=O)[C@H](C)NC(=O)[C@H](C)NC(=O)[C@H](CCC(N)=O)NC(=O)[C@H](CCC(N)=O)NC(=O)[C@H](CCCCN)NC(=O)[C@H](CCC(=O)O)NC(=O)[C@H](CCCCN)NC(=O)[C@H](CCC(=O)O)NC(=O)[C@H](CCC(N)=O)NC(=O)[C@H](CCCCN)NC(=O)[C@H](C)NC(=O)[C@@H](NC(=O)[C@H](CCC(=O)O)NC(=O)[C@@H](NC(=O)[C@H](CCSC)NC(=O)[C@H](CCCCN)NC(=O)[C@H](CCCNC(=N)N)NC(=O)[C@H](CC(C)C)NC(=O)[C@H](CC(C)C)NC(=O)[C@H](CCC(=O)O)NC(=O)[C@H](CC(C)C)NC(=O)[C@@H](N)CO)[C@@H](C)CC)[C@@H](C)CC)C(=O)N[C@@H](CC(=O)O)C(=O)N[C@H](C(=O)N[C@@H](CCC(N)=O)C(N)=O)[C@@H](C)O [XVI, [Ala^21, Nle^37, Gln^40]-sauvagine (10-40)] (H-SLELLRKMIEIAKQEKEKQQAANNRLL[Nle]DTQ-NH2) | inhibits the secretion of ACTH and β-END-LI | –
